Experiments:
Assay in all cases: relative viability (nuclei count vs DMSO), 5 days (fraction); higher = more cells survive
[1] = compound: O=C(/C=C/c1ccccc1)NC(NC(=S)Nc1cccc2cccnc12)C(Cl)(Cl)Cl [Salubrinal]
Method in brief: (§1)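 Five library-drug doses, separated by factors of √10, were pinned into 1536-well plates holding lung cancer cell lines after an overnight stay at 37 °C. Cells were fixed, permeabilised and Hoechst-stained in one step after 5 days without medium change, then imaged at 4×. Viability compares treated-well with vehicle-well nuclei, counted in MetaXpress, as a median across plates. Passing plates had control CV below 25% and at least one doubling.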

[2] = compound: Cc1ccc2nc(NCCN)c3ncc(C)n3c2c1
Method in brief: as §1

[3] = compound: Cc1ccc2nc(NCCN)c3ncc(C)n3c2c1 + CC(=O)Nc1cccc(-n2c(=O)n(C3CC3)c(=O)c3c(Nc4ccc(I)cc4F)n(C)c(=O)c(C)c32)c1 [Trametinib] (partner 0.02 µM)
Method in brief: (§2)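 Relative viability equals treated-well nuclei counts divided by vehicle-well nuclei counts. Counts came from 4× images of lung cancer cell lines grown in 1536-well plates for 5 days after pin-tool dosing on the day after seeding. Dosing used one drug alone or a fixed anchor-drug dose plus five library-drug doses (not always all listed) in √10 steps, and values are medians of duplicate plates.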

[4] = compound: O=C(/C=C/c1ccccc1)NC(NC(=S)Nc1cccc2cccnc12)C(Cl)(Cl)Cl [Salubrinal] + CC1(C)CCC(c2ccc(Cl)cc2)=C(CN2CCN(c3ccc(C(=O)NS(=O)(=O)c4ccc(N[C@H](CCN5CCOCC5)CSc5ccccc5)c(S(=O)(=O)C(F)(F)F)c4)cc3)CC2)C1 [Navitoclax] (partner 0.5 µM)
Method in brief: as §2

| Cell Line | relative viability ([1]; 0.08 µM) | relative viability ([1]; 0.253 µM) | relative viability ([1]; 0.8 µM) | relative viability ([1]; 2.53 µM) | relative viability ([1]; 8 µM) | relative viability ([2]; 0.04 µM) | relative viability ([2]; 0.1265 µM) | relative viability ([2]; 0.4 µM) | relative viability ([2]; 1.265 µM) | relative viability ([2]; 4 µM) | relative viability ([3]; first compound 0.04 µM) | relative viability ([3]; first compound 0.1265 µM) | relative viability ([3]; first compound 0.4 µM) | relative viability ([3]; first compound 1.265 µM) | relative viability ([3]; first compound 4 µM) | relative viability ([4]; first compound 0.08 µM) | relative viability ([4]; first compound 0.253 µM) | relative viability ([4]; first compound 0.8 µM) | relative viability ([4]; first compound 2.53 µM) | relative viability ([4]; first compound 8 µM) |
| --- | --- | --- | --- | --- | --- | --- | --- | --- | --- | --- | --- | --- | --- | --- | --- | --- | --- | --- | --- | --- |
| LK-2 | 1.08 | 1.01 | 1.27 | 1.16 | 1 | 0.961 | 0.928 | 0.881 | 0.979 | 1.03 | 0.921 | 0.576 | 0.682 | 0.617 | 0.672 | 1.07 | 0.793 | 1.05 | 0.958 | 0.921 |
| LOU-NH91 | 0.985 | 0.976 | 1.04 | 0.983 | 0.937 | 1.01 | 0.961 | 0.949 | 0.979 | 0.901 | 0.819 | 0.792 | 0.794 | 0.787 | 0.775 | 0.81 | 0.73 | 0.737 | 0.699 | 0.617 |
| LU99A | 1.07 | 0.862 | 1.03 | 0.9 | 0.898 | 1.07 | 0.904 | 0.986 | 0.961 | 0.839 | 0.501 | 0.604 | 0.541 | 0.618 | 0.577 | 0.942 | 0.864 | 0.798 | 0.858 | 0.828 |
| LXF-289 | 1.04 | 0.945 | 1.01 | 0.995 | 0.975 | 0.985 | 0.966 | 1.01 | 1.01 | 1.02 | 0.669 | 0.629 | 0.696 | 0.645 | 0.663 | 0.99 | 0.898 | 1.04 | 0.943 | 0.868 |
| NCI-H23 | 1.11 | 0.858 | 1.18 | 0.995 | 1.08 | 1.06 | 1.11 | 0.853 | 1.09 | 0.907 | 0.444 | 0.391 | 0.384 | 0.426 | 0.308 | 1.01 | 0.722 | 0.91 | 0.759 | 1.04 |
| NCI-H322M | 1.01 | 0.869 | 0.963 | 0.988 | 0.811 | 0.983 | 0.915 | 0.988 | 0.987 | 0.996 | 0.522 | 0.538 | 0.495 | 0.502 | 0.535 | 1.38 | 1.19 | 1.34 | 1.23 | 1.16 |
| NCI-H441 | 1.25 | 1.02 | 1.34 | 1.03 | 0.784 | 1.1 | 1.05 | 1.09 | 1.11 | 0.964 | 0.487 | 0.47 | 0.342 | 0.346 | 0.512 | 0.437 | 0.711 | 0.642 | 0.678 | 0.913 |
| NCI-H460 | 1.16 | 0.946 | 1.11 | 0.983 | 0.918 | 0.99 | 0.971 | 0.99 | 0.999 | 0.943 | 0.165 | 0.146 | 0.171 | 0.197 | 0.0969 | 1.43 | 0.487 | 1.45 | 1.17 | 1.03 |
| NCI-H520 | 1.05 | 1.01 | 1.07 | 1.03 | 1.14 | 1.13 | 0.912 | 0.933 | 0.915 | 0.845 | 0.75 | 0.658 | 0.753 | 0.677 | 0.621 | 1.16 | 1.04 | 1.32 | 1.11 | 1.18 |
| NCI-H596 | 1.08 | 0.89 | 1.01 | 0.896 | 0.982 | 0.952 | 0.934 | 1.02 | 0.937 | 0.909 | 0.834 | 0.732 | 0.806 | 0.74 | 0.763 | 1.01 | 1.09 | 0.959 | 0.869 | 1.01 |
| NCI-H647 | 1.18 | 0.98 | 1.11 | 0.964 | 0.884 | 1.13 | 0.993 | 0.934 | 0.865 | 0.741 | 0.542 | 0.378 | 0.437 | 0.419 | 0.341 | 1.31 | 1.12 | 1.22 | 1.07 | 1.03 |
| NCI-H727 | 1.01 | 1.45 | 1.11 | 0.827 | 0.797 | 0.969 | 0.734 | 1.14 | 0.949 | 0.994 | 0.453 | – | 0.398 | 0.383 | 0.435 | 0.519 | 0.482 | 0.443 | 0.395 | 0.474 |
| NCI-H838 | 1.1 | 0.987 | 1.07 | 1.07 | 0.922 | 1.03 | 0.951 | 0.912 | 0.907 | 0.929 | 0.561 | 0.507 | 0.45 | 0.507 | 0.612 | 1.35 | 1.21 | 1.22 | 1.15 | 1.23 |
| NCI-H1355 | 1.11 | 0.941 | 1.03 | 0.979 | 0.955 | 1.05 | 0.983 | 0.938 | 0.995 | 0.935 | 0.44 | 0.448 | 0.392 | 0.39 | 0.387 | 1.02 | 1.07 | 1.07 | 0.949 | 0.87 |
| NCI-H1395 | 0.882 | 1.01 | 1.08 | 1.01 | 0.769 | 0.959 | 0.941 | 0.844 | 0.859 | 0.633 | 0.977 | 0.983 | 0.989 | 0.828 | 0.878 | 1.08 | 1.26 | 1.12 | 1.06 | 1.29 |
| NCI-H1437 | 0.992 | 0.922 | 1.12 | 1.02 | 0.968 | 1.02 | 0.982 | 0.988 | 0.939 | 0.873 | 0.578 | 0.463 | 0.445 | 0.415 | 0.381 | 1.14 | 1.06 | 1.16 | 1.08 | 1.09 |

— the supplement of paper PMC10307832
